Results published in ChEMBL document CHEMBL1123416, “Imidazo[2,1-b]benzothiazoles. 2. New immunosuppressive agents” (1986).
Where “and” joins values, the source holds several entries; their conditions need not be identical. Equal values may be shown once.

Assays:
Type in all cases: functional
Mus musculus [1] = test: Significant suppressive activity of delayed type hypersensitivity (DTH) with out inhibition of humoral immunity in mice by oral administration at dose of 50 mg/kg
Mus musculus [2] = test: The compound was tested for its significant suppressive activity of delayed type hypersensitivity (DTH) with out inhibition of humoral immunity in mice by oral administration at dose of 400 mg/kg
Mus musculus [3] = test: Compound was tested for its significant suppressive activity of delayed type hypersensitivity (DTH) with out inhibition of humoral immunity in mice by oral administration at dose of 25 mg/kg
Mus musculus [4] = test: Compound was tested for its significant suppressive activity of delayed type hypersensitivity (DTH) with out inhibition of humoral immunity in mice by oral administration at dose of 200 mg/kg
Mus musculus [5] = test: Compound was tested for its significant suppressive activity of delayed type hypersensitivity (DTH) with out inhibition of humoral immunity in mice by oral administration at dose of 100 mg/kg
Mus musculus [6] = test: Significant suppressive activity of delayed type hypersensitivity (DTH) with out inhibition of humoral immunity in mice by oral administration at dose of 400 mg/kg
Mus musculus [7] = test: Effect on the plaque forming cell formation in BDF1 mice after peroral administration at dose of 10 mg/kg; settings: route oral
Mus musculus [8] = test: Effect on the plaque forming cell formation in BDF1 mice after peroral administration at dose of 300 mg/kg; settings: route oral
Mus musculus [9] = test: Effect on the plaque forming cell formation in BDF1 mice after peroral administration at dose of 30 mg/kg; settings: route oral
Mus musculus [10] = test: Effect on the plaque forming cell formation in BDF1 mice after peroral administration at dose of 100 mg/kg; settings: route oral
Mus musculus [11] = test: Compound was tested for its significant suppressive activity of delayed type hypersensitivity (DTH) with out inhibition of humoral immunity in mice by oral administration at dose of 12.5 mg/kg

For `Cc1ccc(-c2cn3c(n2)sc2ccccc23)cc1`, the “Increase in ear thickness” value (Mus musculus [1]) was 5.8 1/100mm, the inhibition in vivo at 50 mg/kg (Mus musculus [1]) was -11.5% and the “Increase in ear thickness” value (Mus musculus [2]) was 5.3 1/100mm. The inhibition in vivo at 400 mg/kg (Mus musculus [2]) was -1.9%.
In the case of `O=CNc1cccc(-c2cn3c(n2)sc2ccccc23)c1`, the “Increase in ear thickness” value (Mus musculus [3]) is reported as 2.6 1/100mm, the inhibition in vivo at 25 mg/kg (Mus musculus [3]) is reported as 39.5% and the “Increase in ear thickness” value (Mus musculus [4]) is reported as 2.2 1/100mm. The inhibition in vivo at 200 mg/kg (Mus musculus [4]) was 48.8%.
With `Oc1cccc(-c2cn3c(n2)sc2ccccc23)c1` the “Increase in ear thickness” value (Mus musculus [5]) was 2.4 1/100mm, the inhibition in vivo at 100 mg/kg (Mus musculus [5]) was 61.3% and the inhibition in vivo at 50 mg/kg (Mus musculus [1]) was 37.1%. For the same compound, the “Increase in ear thickness” value (Mus musculus [1]; 50 mg/kg) was 3.4 1/100mm and 3.9 1/100mm, the inhibition in vivo at 400 mg/kg (Mus musculus [6]) was 79% and the “Increase in ear thickness” value (Mus musculus [6]; 400 mg/kg) was 0.9 1/100mm and 1.3 1/100mm. It also gave a PFC/splleen (Mus musculus [7]) of 0.177, a PFC/splleen (Mus musculus [8]) of 0.182 and a PFC/splleen (Mus musculus [9]) of 0.138. For the same compound, the “Increase in ear thickness” value (Mus musculus [3]) was 5.3 1/100mm, the PFC/splleen (Mus musculus [10]) was 0.198 and the “Increase in ear thickness” value (Mus musculus [4]) was 2.8 1/100mm. For the same compound, the inhibition in vivo at 200 mg/kg (Mus musculus [4]) was 54.8%.
In the case of `CN(C)c1cccc(-c2cn3c(n2)sc2ccccc23)c1`, the “Increase in ear thickness” value (Mus musculus [5]) is reported as 3.2 1/100mm, the inhibition in vivo at 100 mg/kg (Mus musculus [5]) is reported as 21% and the “Increase in ear thickness” value (Mus musculus [11]) is reported as 3.4 1/100mm. It also gave an inhibition in vivo at 12.5 mg/kg (Mus musculus [11]) of 17%.
For `CC(=O)Nc1ccc(-c2cn3c(n2)sc2ccccc23)cc1`, the “Increase in ear thickness” value (Mus musculus [1]) was 3.6 1/100mm, the inhibition in vivo at 25 mg/kg (Mus musculus [3]) was -9.1% and the “Increase in ear thickness” value (Mus musculus [4]) was 3 1/100mm. The inhibition in vivo at 200 mg/kg (Mus musculus [4]) was 9.1%.
For `Cc1ccc(-c2cn3c(n2)sc2ccccc23)cc1[S+](C)[O-]` (configuration not stated), the “Increase in ear thickness” value (Mus musculus [3]) was 3.9 1/100mm, the inhibition in vivo at 25 mg/kg (Mus musculus [3]) was 4.9% and the “Increase in ear thickness” value (Mus musculus [4]) was 1.9 1/100mm. The inhibition in vivo at 200 mg/kg (Mus musculus [4]) was 53.7%.
For `Oc1ccc(-c2cn3c(n2)sc2ccccc23)cc1O`, the “Increase in ear thickness” value (Mus musculus [3]) was 2.5 1/100mm, the inhibition in vivo at 25 mg/kg (Mus musculus [3]) was 21.9% and the “Increase in ear thickness” value (Mus musculus [4]) was 3.1 1/100mm. It also gave an inhibition in vivo at 200 mg/kg (Mus musculus [4]) of 3.1%.
